Among the test systems are NCI-H522 lung; SR leukemia; MALME-3M melanoma; HOP-62 NSCLC; NCI-H226 lung; HCT-15 colon; K-562 leukemia; SF-539 CNS; TK-10 renal; UACC-62 melanoma.
Assay in all cases: DTP human tumour cell line panel, 48 h

Structures are written as SMILES.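 Five compound concentrations were applied to cells in 96-well plates for 48 hours; endpoints were derived by simple linear interpolation of the resulting dose-response curve. TGI is the concentration that stops growth completely.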

Turning to `O=C(O)[C@H]1[C@@H](C2CCCCC2)O[C@@H](C2CCCCC2)O[C@H]1C(F)(F)F`, the TGI is over 100 µM in the test on NCI-H522 lung; 46.9 µM in the test on SR leukemia; 73.3 µM with MALME-3M melanoma; 50.6 µM with HOP-62 NSCLC; 41.6 µM in the test with NCI-H226 lung; 88.1 µM in the test on HCT-15 colon. The TGI is over 100 µM in the test on K-562 leukemia, over 100 µM in the test with SF-539 CNS, over 100 µM in the test with TK-10 renal and 41.2 µM with UACC-62 melanoma.

In the case of `Cc1ccc(C2CC(=O)CC(c3ccc(C)cc3)C23C(=O)NC(=O)NC3=O)cc1` (stereo not given), the TGI in the test on NCI-H522 lung, in the test on SR leukemia, in the test with MALME-3M melanoma, in the test with HOP-62 NSCLC, in the test with NCI-H226 lung and in the test with HCT-15 colon was over 100 µM in each case. The TGI in the test with K-562 leukemia, in the test with SF-539 CNS, with TK-10 renal and in the test on UACC-62 melanoma was over 100 µM throughout.

With `O=C1Oc2ccccc2C(=O)/C1=C/N1C(=O)N/C(=C\c2ccccc2O)C1=O`, the total growth inhibition concentration (TGI) with NCI-H522 lung, with SR leukemia, in the test with MALME-3M melanoma, in the test on HOP-62 NSCLC, in the test on NCI-H226 lung and with HCT-15 colon was over 100 µM each time. Moreover, the TGI in the test with K-562 leukemia, with SF-539 CNS, with TK-10 renal and in the test with UACC-62 melanoma was over 100 µM each time.

On to `O=C1C2CCCCC2C(=O)N1n1c(Cc2ccc(Cl)cc2)n[nH]c1=O` (stereo not given), for which the TGI in the test on NCI-H522 lung, in the test with SR leukemia, in the test on MALME-3M melanoma, in the test with HOP-62 NSCLC, in the test on NCI-H226 lung and in the test on HCT-15 colon was over 100 µM each time. The TGI in the test with K-562 leukemia, with SF-539 CNS, in the test with TK-10 renal and in the test on UACC-62 melanoma was over 100 µM in each case.

Consider `C=C(C)[C@@]1(O)O[C@H]2C[C@@]3(C)OC(=CC3=O)/C(C)=C\[C@@H]3OC(=O)[C@@]1(C)[C@H]32`, for which the TGI in the test on NCI-H522 lung is 15.6 µM; with SR leukemia, over 64.4 µM; with MALME-3M melanoma it was over 100 µM; in the test with HOP-62 NSCLC, over 100 µM; in the test with NCI-H226 lung, 69.8 µM; in the test with HCT-15 colon, 44 µM. In addition, the TGI with K-562 leukemia stood at 35.4 µM; with SF-539 CNS, 56 µM; with TK-10 renal it was 42.1 µM; in the test with UACC-62 melanoma, 35.7 µM.

For `C/C=C/[C@@]1(OC(=O)c2ccccc2)C[C@@H]2CCCC[C@@H]21`, the TGI came to 29.9 µM in the test on NCI-H522 lung; 37.9 µM in the test on SR leukemia; 35.3 µM in the test with MALME-3M melanoma; 29 µM in the test with HOP-62 NSCLC; 30.9 µM in the test with NCI-H226 lung; 36.9 µM with HCT-15 colon. The TGI came out at 56.7 µM in the test with K-562 leukemia, 33.1 µM in the test on SF-539 CNS, 36 µM in the test with TK-10 renal and 32.9 µM in the test with UACC-62 melanoma.

As for `Clc1ccc2c(SCC3CO3)c3ccccc3nc2c1` (stereo not given), the total growth inhibition concentration (TGI) was 5.64 µM in the test with NCI-H522 lung; 4.56 µM in the test on SR leukemia; 6.39 µM in the test on MALME-3M melanoma; 17.6 µM in the test with HOP-62 NSCLC; over 100 µM in the test on NCI-H226 lung; 3.34 µM in the test on HCT-15 colon. Also, the TGI in the test with K-562 leukemia was 4.43 µM; in the test with SF-539 CNS it was 7.11 µM; in the test on TK-10 renal, 3.35 µM; with UACC-62 melanoma it was over 100 µM.

Regarding `C=C(C)[C@@H]1CC[C@]2(C(=O)O)CC[C@]3(C)[C@H](CC[C@@H]4[C@@]5(C)CC(=O)C(C)(C)[C@@H]5CC[C@]43C)[C@@H]12`, the TGI was 19.7 µM with NCI-H522 lung; 12.3 µM in the test on SR leukemia; over 25 µM in the test on MALME-3M melanoma; over 25 µM with HOP-62 NSCLC; over 25 µM in the test with NCI-H226 lung; over 25 µM in the test on HCT-15 colon. In addition, the TGI in the test with K-562 leukemia was over 25 µM; in the test with SF-539 CNS it was 14.7 µM; in the test on TK-10 renal, over 25 µM; in the test with UACC-62 melanoma, 6.66 µM.

For the compound `O=C(O)CCCl`, the total growth inhibition concentration (TGI) is over 5000 µM with NCI-H522 lung; over 5000 µM in the test on SR leukemia; 4970 µM in the test with MALME-3M melanoma; over 5000 µM in the test with HOP-62 NSCLC; over 5000 µM with NCI-H226 lung; over 5000 µM in the test with HCT-15 colon. For the same compound, the TGI in the test on K-562 leukemia was over 5000 µM; with SF-539 CNS, over 5000 µM; in the test on TK-10 renal it was over 5000 µM; in the test with UACC-62 melanoma, 4740 µM.

In the case of `O=C1c2c(F)c(F)c(F)c(F)c2SC2=NCCN12`, the TGI in the test on NCI-H522 lung was 10.1 µM; with SR leukemia, 4.45 µM; in the test with MALME-3M melanoma, 12.8 µM; in the test with HOP-62 NSCLC it was 32.6 µM; in the test with NCI-H226 lung it was 34.5 µM; with HCT-15 colon, 7.56 µM. Also, the TGI in the test with K-562 leukemia is over 22.5 µM; in the test on SF-539 CNS it was 30 µM; in the test on TK-10 renal it was 22.4 µM; in the test with UACC-62 melanoma it was 19.2 µM.

Turning to `O=c1[nH]c(=O)n(C2CC(O)C(CO)O2)cc1I` (stereo not given), the total growth inhibition concentration (TGI) in the test on NCI-H522 lung, in the test with SR leukemia, with MALME-3M melanoma, in the test on HOP-62 NSCLC, in the test on NCI-H226 lung and in the test on HCT-15 colon was over 100 µM throughout. Further, the TGI with K-562 leukemia, in the test with SF-539 CNS, with TK-10 renal and with UACC-62 melanoma was over 100 µM each time.

The term TGI denotes the concentration giving total growth inhibition. A low value points to more potent growth arrest.

For the origin of these results see PubChem BioAssay (NCI).
